Experimental data: patent publication US8703970B2, “Compounds having photochemically removable protecting groups based on an electrocyclic reaction between a chromophore attached via an anilide group to a benzothiophene ring” (Marquette University, priority 2012, dated 2014)
Like-named read-outs stand apart in the source and are kept apart here.

Experiment: Solubility observations on photoproducts
Format: physicochemical
Protocol: Photoproduct 26 was identified by ^1H NMR spectroscopy and elemental analysis. […] Regioisomer 28 would have shown only four vicinal couplings in the COSY spectrum. […] The compound was obtainable only as a powder, despite repeated attempts to obtain crystals for structure determination using X-ray diffraction.
Similarly, preparative photolysis of […] acid 9 (LG^−=Cl^−) in N2 saturated 75% H2O in CH3CN containing 100 mM phosphate buffer (pH 7) gave the single regioisomeric photoproduct 27 in 98% yield by NMR integration, as above for 8 (LG^−=Cl^−). The regiospecificity was again established by 600 MHz ^1H NMR COSY. […] Photolysis of acid 9 (LG^−=PhS^−, HS^−, PhCH2S^−) under the same conditions as 8 (LG^−=Cl^−) also gave photoproduct 27 in 98-100% yields upon expulsion of these thiolate leaving groups. For acid 9 (LG^−=PhCH2S^−) the released benzyl thiol was quantified in photolyses of 4.5×10^−3 M solutions of 35% D2O in CD3CN containing phosphate buffer (as above) contained in NMR tubes. Yields were 96% thiol and 99% of 27 at 100% conversion of reactant by ^1H NMR spectroscopy. Very similar results were found when DMSO-d6 was the photolysis solvent.
A 0.010 M solution of 8 (LG^−=Cl^−) in N2 saturated 17% H2O in CH3CN containing 100 mM phosphate buffer at pH 7 was irradiated with a 450 W Hanovia medium pressure mercury lamp with a Pyrex filter for 90 min. […]

Compound | solubility (in DMSO-d6, 13C-NMR could not be obtained) | solubility
Cn1c(=O)c2sc3ccccc3c2c2cc3sc4ccccc4c(=O)c3cc21 [compound 31] | low solubility | –
COC(=O)c1ccc2c(c1)sc1c(=O)n(C)c3cc4c(=O)c5cc(Br)ccc5sc4cc3c12 [compound 32, 6-methylcarboxylate-[1]benzothiopheno[2,3-c]benzo[a]anthracene-10-bromo-4-methyl-4H-7-thia-4-aza-3,12-dione] | – | low solubility
